Values of other authors in patent US20250340636A1, “ANTIBODIES TARGETING L1CAM AND USES THEREOF” (MEMORIAL SLOAN-KETTERING CANCER CENTER, priority 2023, published 2025).

Settings: free drug, mice (Quintieri et al. 2005); cited from earlier work

COc1cccc2c1C(=O)c1c(O)c3c(c(O)c1C2=O)C[C@@](O)(C(=O)CO)C[C@@H]3O[C@H]1C[C@H]2[C@H](O[C@@H]3[C@@H](OC)OCCN32)[C@H](C)O1 [PNU-159682]
maximum tolerated dose: 0.015 mg/kg
